One data set in a line: in vitro. The following applies: human.
A further data set concerns VACV-WR-GFP virus. Kind of data set: microbe, parasite or virus in culture. Format: cell-based. The following applies: Orthopoxvirus vaccinia, HeLa, 24 h; for IC50: read-out: IC50 (50% inhibition of viral spread); for IC90: read-out: IC90 (90% inhibition of viral spread).
The next data set concerns the target luciferase (Photinus pyralis, UniProt P08659). Format: biochemical.
A further data set has as its system VACV WR A4-YFP. Format: cell-based, vaccinia virus.
The subject of a further data set is VACV IHDJ virus. Format: cell-based, vaccinia virus.
The subject of another data set is VACV WR-Luc virus. Format: cell-based.
The subject of a further data set is VACV WR. Format: cell-based, vaccinia virus.

From article PMC7190985 (Frontiers in Microbiology, 2020) come the findings set out here.

The structures appear in SMILES notation. “Also recorded” adds a separate entry of the source.

luciferase, sequence (P08659 whole entry): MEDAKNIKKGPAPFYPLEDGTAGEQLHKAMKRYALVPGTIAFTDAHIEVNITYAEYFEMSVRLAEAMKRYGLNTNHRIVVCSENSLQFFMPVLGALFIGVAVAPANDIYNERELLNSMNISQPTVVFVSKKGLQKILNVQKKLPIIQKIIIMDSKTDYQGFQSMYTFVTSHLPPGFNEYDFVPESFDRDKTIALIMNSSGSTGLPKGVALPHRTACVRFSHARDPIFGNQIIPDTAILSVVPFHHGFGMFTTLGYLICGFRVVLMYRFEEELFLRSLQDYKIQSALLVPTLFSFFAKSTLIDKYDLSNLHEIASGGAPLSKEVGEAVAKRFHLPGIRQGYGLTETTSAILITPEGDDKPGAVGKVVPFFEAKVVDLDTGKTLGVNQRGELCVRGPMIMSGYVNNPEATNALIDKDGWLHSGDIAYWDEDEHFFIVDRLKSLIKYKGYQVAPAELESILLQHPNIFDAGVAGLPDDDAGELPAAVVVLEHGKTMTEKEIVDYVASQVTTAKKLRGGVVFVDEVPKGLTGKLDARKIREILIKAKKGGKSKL

For the compound `O=C(NN1C(=O)[C@@H]2[C@@H]3C=C[C@@H]([C@H]4C[C@@H]34)[C@@H]2C1=O)c1ccc(C(F)(F)F)cc1` [ST-246], the CC50 in “in vitro” is above 400000 nM. Further, in the data set with VACV-WR-GFP virus, the IC50 – broadly, the concentration that inhibits the measured activity by half – was 40 nM and the concentration for an effect of 90% (IC90) (commonly the point of the concentration-response curve where the effect stands at 90%) is 100 nM.

As to `O=C1CN(C(=O)c2nccs2)C(c2cccc(Cl)c2)c2cc(Br)ccc2N1` (centres unmarked) [PA104], at luciferase, the “luciferase enzyme activity (RLU)” value is “does not impact luciferase enzyme activity”. Further, the “virus-loaded actin tails per cell” value with VACV WR A4-YFP is reported as “significant decrease in virus-loaded tails”. Further, the CC50 in the data set “in vitro” was above 400000 nM. In addition, in the data set on VACV-WR-GFP virus, the IC50 amounted to 500 nM and the IC90 was found to be 1300 nM. Besides, in the data set on VACV IHDJ virus, the “MV yield / MV formation” value is listed as “small reduction in MV yield”. For the same compound, in the data set on VACV WR-Luc virus, the “luciferase activity (viral entry)” value is on record as “observable reduction in luciferase activity” and the “viral entry (luciferase RLU)” value is listed as “a decrease in viral entry was observed”. The “viral plaque size, wild-type virus” value with VACV WR is given as “maximal inhibition of plaque size”.

Take `CCC(=O)N1CC(=O)Nc2ccc(Br)cc2C1c1ccccc1` (centres unmarked) [Retro 1]: the CC50 in “in vitro” was above 400000 nM. Besides, in the data set on VACV-WR-GFP virus, the IC50 amounted to 3000 nM and the IC90 was 7200 nM.

Regarding `Cc1ccc(/C=N/c2ccccc2C(=O)Nc2ccccc2)s1` [Retro 2], the CC50 in the data set “in vitro” is above 400000 nM. In the data set on VACV-WR-GFP virus, the IC50 amounted to 2200 nM and the concentration for an effect of 90% (IC90) turned out to be 5500 nM.

For the compound `O=C1CN(C(=O)c2nccs2)C(c2cc(Cl)cc(Cl)c2)c2cc(Cl)ccc2N1` (centres unmarked) [PA24], the “virus-loaded actin tails per cell” value with VACV WR A4-YFP is recorded as “significant decrease in virus-loaded tails”. Moreover, the CC50 in “in vitro” was above 400000 nM. In addition, in the data set with VACV-WR-GFP virus, the 50% inhibitory concentration (IC50) turned out to be 1000 nM and the 90% effect concentration (IC90) came out at 1800 nM. For the same compound, the “viral entry (luciferase RLU)” value with VACV WR-Luc virus is listed as “did not markedly decrease viral entry; also recorded: reduced viral entry”.
